According to patent publication US8859588B2, “Substituted N-heteroaryl bipyrrolidine carboxamides, preparation and therapeutic use thereof” (SANOFI, priority 2010, dated 2014):

The molecules below were run against T1, rhesus (Macacca Mulatta) H3 receptor (Macaca mulatta, UniProt Q865E1) (assay: Rhesus H3 radioligand binding assay ([3H]-Methylhistamine displacement, WGA SPA)). Details: [3H]-Methylhistamine 2 nM; rhesus H3 membranes from Flp-In T-REx 293 cells; 25° C., 1 hour; Ki by Cheng-Prusoff equation.
T1 construct: rhesus monkey (Macacca Mulatta) 445 amino acid H3 receptor; (Genbank #AY231164); expressed in transfected cells; host or cells: Flp-In T-REx 293 Cell Line (Invitrogen), pcDNA5/FRT/TO vector, induced with tetracycline; membrane preparation
T1 sequence (Q865E1 1-445): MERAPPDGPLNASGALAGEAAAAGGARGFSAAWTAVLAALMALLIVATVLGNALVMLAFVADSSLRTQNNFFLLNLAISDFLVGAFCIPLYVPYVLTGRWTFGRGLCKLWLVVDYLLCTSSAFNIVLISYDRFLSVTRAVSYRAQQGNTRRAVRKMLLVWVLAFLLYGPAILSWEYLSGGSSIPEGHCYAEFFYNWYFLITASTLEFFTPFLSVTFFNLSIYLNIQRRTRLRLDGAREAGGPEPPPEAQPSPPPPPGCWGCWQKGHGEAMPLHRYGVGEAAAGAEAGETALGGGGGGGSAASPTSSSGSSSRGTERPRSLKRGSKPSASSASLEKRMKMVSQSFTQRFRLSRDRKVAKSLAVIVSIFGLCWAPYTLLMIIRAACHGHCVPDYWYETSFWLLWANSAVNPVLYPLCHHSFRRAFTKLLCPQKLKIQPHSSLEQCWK
Parameters: species or system rhesus monkey (Macacca Mulatta)
Procedure: Rhesus H3 membranes were prepared from the Flp-In T-REx 293 Cell Line (Invitrogen) stably transfected with pcDNA5/FRT/TO (Invitrogen) containing the rhesus monkey (Macacca Mulatta) 445 amino acid H3 receptor. (Genbank #AY231164). Stably transfected cultures were amplified in tissue culture flasks by standard tissue culture methods and induced to express rhesus H3 by exposure to 500 ng/ml tetracycline (Cellgro) for 24 hours. After induction, cells were dissociated from flasks utilizing Cell Stripper (Cellgro). Cells were centrifuged (1K×g, 5 min) and pellet frozen in an ethanol-dry ice bath to disrupt cell membranes. Frozen cell pellet was re-suspended in 5 mM HEPES (pH 7.4, Invitrogen) at 10 ml/1000 cm2 of harvested cells. The cell suspension was drawn through an 18 gauge needle (2-3×) followed by a 23 gauge needle (2-3×) to further disrupt cell membranes. The cell suspension was centrifuged (40K×g, 30 min). Cell membrane pellet was re-suspended in 5 mM HEPES (pH 7.4, Invitrogen) at a final protein concentration of 10 mg/ml. Rhesus H3 membranes were stored under liquid nitrogen prior to use in [3H]-Methylhistamine and GTPγS radioligand binding assays.
Rhesus H3 radioligand binding assay was performed using rhesus H3 receptor membranes (prepared as described above), [3H]-Methylhistamine (Perkin Elmer) and WGA SPA beads (wheat germ agglutinin scintillation proximity assay) beads (Amersham). The assay was performed in 96-well Opti-Plates (Packard). Each reaction contained 50 μl rhesus H3 membranes (20-30 μg total protein), 50 μl WGA SPA beads (0.1 μg) and 50 μl of 83 Ci/mmol [^3H]-Methylhistamine (final concentration 2 nM) and 50 μl of tested compound. The compounds of this invention and/or vehicle were diluted with binding buffer from 10 mM DMSO stocks. Assay plates were sealed with TopSeal (Perkin Elmer) and mixed on shaker (25° C., 1 hour). Assay plates were read on TopCount scintillation counter (Packard). Results were analyzed by Hill transformation and Ki values were determined by Cheng-Prusoff equation.

First: Cc1nc(N2CC[C@H](N3CCC[C@@H]3C)C2)ccc1NS(=O)(=O)c1ccc(F)c(F)c1 [Example 6, 3,4-Difluoro-N-[2-methyl-6-((2S,3′S)-2-methyl-[1,3′]bipyrrolidinyl-1′-yl)-pyridin-3-yl]-benzenesulfonamide]
Second: Cc1nc(N2CC[C@@H](N3CCC[C@@H]3C)C2)ccc1NS(=O)(=O)c1ccc(F)cc1 [Example 12, 4-Fluoro-N-[2-methyl-6-((2S,3′R)-2-methyl-[1,3′]bipyrrolidinyl-1′-yl)-pyridin-3-yl]-benzenesulfonamide]
The Ki of the first is 12-fold lower: 2.51 nM for the first, 29.6 nM for the second.

First: Cc1nc(N2CC[C@@H](N3CCC[C@@H]3C)C2)ccc1NC(=O)c1cccs1 [Example 10, Thiophene-2-carboxylic acid [2-methyl-6-((2S,3′R)-2-methyl-[1,3′]bipyrrolidinyl-1′-yl)-pyridin-3-yl]-amide]
Second: Cc1nc(N2CC[C@H](N3CCC[C@@H]3C)C2)ccc1NC(=O)c1ccccc1 [Example 7, N-[2-Methyl-6-((2S,3′S)-2-methyl-[1,3′]bipyrrolidinyl-1′-yl)-pyridin-3-yl]-benzamide]
The Ki of the first is 4.4-fold higher: 36 nM for the first, 8.09 nM for the second. The second binds more tightly here.

First: Cc1nc(N2CC[C@@H](N3CCC[C@@H]3C)C2)ccc1NC(=O)c1c(C)noc1C [Example 11, 3,5-Dimethyl-isoxazole-4-carboxylic acid [2-methyl-6-((2S,3′R)-2-methyl-[1,3′]bipyrrolidinyl-1′-yl)-pyridin-3-yl]-amide]
Second: Cc1ccc(F)cc1C(=O)Nc1ccc(N2CC[C@@H](N3CCC[C@@H]3C)C2)nc1C [Example 9, 5-Fluoro-2-methyl-N-[2-methyl-6-((2S,3′R)-2-methyl-[1,3′]bipyrrolidinyl-1′-yl)-pyridin-3-yl]-benzamide]
The Ki of the first is 2.3-fold lower: 84 nM for the first, 195 nM for the second. The first binds more tightly here.

`Cc1nc(N2CC[C@H](N3CCC[C@@H]3C)C2)ccc1NC(=O)C1CCOCC1` [Example 1, Tetrahydro-pyran-4-carboxylic acid [2-methyl-6-((2S,3′S)-2-methyl-[1,3′]bipyrrolidinyl-1′-yl)-pyridin-3-yl]-amide] and `CC(=O)N1CCC(C(=O)Nc2ccc(N3CC[C@@H](N4CCC[C@@H]4C)C3)nc2C)CC1` [Example 8, 1-Acetyl-piperidine-4-carboxylic acid [2-methyl-6-((2S,3R)-2-methyl-[1,3′]bipyrrolidinyl-1′-yl)-pyridin-3-yl]-amide] are within 1.5-fold of each other in Ki: 2.4 nM for the first, 2.46 nM for the second.

`C[C@H]1CCCN1[C@H]1CCN(c2ccc(NC(=O)C3CCOCC3)nc2)C1` [Example 2, Tetrahydro-pyran-4-carboxylic acid [5-((2S,3′S)-2-methyl-[1,3′]bipyrrolidinyl-1′-yl)-pyridin-2-yl]-amide] and `Cc1nc(N2CC[C@@H](N3CCC[C@@H]3C)C2)ccc1NS(=O)(=O)C1CC1` [Example 13, Cyclopropanesulfonic acid [2-methyl-6-((2S,3′R)-2-methyl-[1,3′]bipyrrolidinyl-1′-yl)-pyridin-3-yl]-amide] are within 1.5-fold of each other in Ki: 27 nM for the first, 37.1 nM for the second.

First: Cc1nc(N2CC[C@H](N3CCC[C@@H]3C)C2)ccc1NS(=O)(=O)C1CCCCC1 [Example 5, Cyclohexanesulfonic acid [2-methyl-6-((2S,3′S)-2-methyl-[1,3′]bipyrrolidinyl-1′-yl)-pyridin-3-yl]-amide]
Second: Cc1nc(N2CC[C@H](N3CCC[C@@H]3C)C2)ccc1NC(=O)Cc1ccccc1 [Example 4, N-[2-Methyl-6-((2S,3′S)-2-methyl-[1,3′]bipyrrolidinyl-1′-yl)-pyridin-3-yl]-2-phenyl-acetamide]
The Ki of the first is 5.4-fold higher: 26.3 nM for the first, 4.9 nM for the second.

Work on `Cc1nc(N2CC[C@H](N3CCC[C@@H]3C)C2)ccc1NC(=O)c1cccc2ccccc12` [Example 3, Naphthalene-1-carboxylic acid [2-methyl-6-((2S,3′S)-2-methyl-[1,3′]bipyrrolidinyl-1′-yl)-pyridin-3-yl]-amide] yielded a Ki of 4.24 nM.
